Source: BindingDB's records for patent US20250059196 (Shanghai Hansoh Biomedical, 2025)

Biological target: T1, Mucosa-associated lymphoid tissue lymphoma translocation protein 1 (Homo sapiens, UniProt Q9UDY8)
T1 sequence (Q9UDY8 whole entry): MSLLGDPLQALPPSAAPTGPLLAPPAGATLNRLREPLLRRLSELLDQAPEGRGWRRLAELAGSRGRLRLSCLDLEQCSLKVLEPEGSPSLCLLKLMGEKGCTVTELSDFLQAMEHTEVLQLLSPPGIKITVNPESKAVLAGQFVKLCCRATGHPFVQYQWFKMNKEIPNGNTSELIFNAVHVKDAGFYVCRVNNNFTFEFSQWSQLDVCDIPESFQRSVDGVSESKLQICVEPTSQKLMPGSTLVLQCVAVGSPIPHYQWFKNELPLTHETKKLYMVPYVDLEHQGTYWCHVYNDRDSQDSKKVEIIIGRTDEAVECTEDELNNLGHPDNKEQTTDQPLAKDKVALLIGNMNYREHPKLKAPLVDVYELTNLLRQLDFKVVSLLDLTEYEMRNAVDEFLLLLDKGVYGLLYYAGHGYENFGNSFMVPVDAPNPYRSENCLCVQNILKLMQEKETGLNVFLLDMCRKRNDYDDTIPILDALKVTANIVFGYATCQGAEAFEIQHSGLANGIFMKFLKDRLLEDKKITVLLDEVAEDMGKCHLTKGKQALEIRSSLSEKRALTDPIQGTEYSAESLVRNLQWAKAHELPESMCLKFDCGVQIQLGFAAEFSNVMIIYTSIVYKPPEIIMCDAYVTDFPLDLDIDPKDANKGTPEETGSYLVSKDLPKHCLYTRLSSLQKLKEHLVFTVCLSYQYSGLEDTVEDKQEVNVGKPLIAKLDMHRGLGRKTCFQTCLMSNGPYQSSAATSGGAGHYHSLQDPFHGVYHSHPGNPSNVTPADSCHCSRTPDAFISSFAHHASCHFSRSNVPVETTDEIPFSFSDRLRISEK
Assay: MALT1 Enzyme Activity Assay
Description: The compound and the enzyme were pre-incubated at room temperature for 50 min. The substrate was then added and the reaction was carried out for 4 h.

| Structure (SMILES) | IC50 [nM] |
| --- | --- |
| O=C(Nc1cnc(-c2nccs2)c(C(F)(F)F)c1)c1cnn(-c2ccc3c4c(cccc24)C(=O)N3)c1C(F)(F)F [US20250059196, Example 33] | 46 |
| O=C(Nc1ccc(-n2nccn2)c(C(F)(F)F)c1)c1cnn(-c2cnc3c4c(cccc24)C(=O)N3)c1C(F)(F)F [US20250059196, Example 73] | 191 |
| O=C(Nc1cnc(-n2cccn2)c(C(F)(F)F)c1)c1cnn(-c2ccc3c4c(cccc24)C(=O)N3)c1C(F)(F)F [US20250059196, Example 31] | 40 |
| O=C(Nc1cnc(-n2nccn2)c(C(F)(F)F)c1)c1cnn(-c2ncc3c4c(cccc24)C(=O)N3)c1C(F)(F)F [US20250059196, Example 87] | 84 |
| O=C(Nc1cnc(-c2ncco2)c(C(F)(F)F)c1)c1cnn(-c2ccc3c4c(cccc24)C(=O)N3)c1C(F)(F)F [US20250059196, Example 34] | 32 |
| O=C(Nc1ccc(-n2nccn2)c(Cl)c1)c1cnn(-c2cnc3c4c(cccc24)C(=O)N3)c1C(F)(F)F [US20250059196, Example 75] | 24 |
| Cc1nc(-c2ncc(NC(=O)c3cnn(-c4ccc5c6c(cccc46)C(=O)N5)c3C(F)(F)F)cc2C(F)(F)F)oc1C [US20250059196, Example 35] | 59 |
| N#Cc1ccnn1-c1ncc(NC(=O)c2cnn(-c3ccc4c5c(cccc35)C(=O)N4)c2C(F)(F)F)cc1C(F)(F)F [US20250059196, Example 32] | 123 |
| O=C(Nc1ccc(-n2cccn2)c(C(F)(F)F)c1)c1cnn(-c2ccc3c4c(cccc24)C(=O)N3)c1C(F)(F)F [US20250059196, Example 51] | 47 |
| O=C(Nc1cnc(N2CCC2)c(Cl)c1)c1cnn(-c2ccc3c4c(cccc24)C(=O)N3)c1C(F)(F)F [US20250059196, Example 48] | 140 |
| O=C(Nc1cnc(-n2ccnn2)c(C(F)(F)F)c1)c1cnn(-c2ccc3c4c(cccc24)C(=O)N3)c1C(F)(F)F [US20250059196, Example 36] | 53 |
| CCc1cc(-n2ncc(C(=O)Nc3ccnc(C(F)(F)F)c3)c2C(F)(F)F)c2cccc3c2c1NC3=O [US20250059196, Example 89] | 106 |
| O=C(Nc1ccc(-n2cccn2)c(C(F)(F)F)c1)c1cnn(-c2cnc3c4c(cccc24)C(=O)N3)c1C(F)(F)F [US20250059196, Example 74] | 196 |
| O=C(Nc1cnc(-n2nccn2)c(C(F)(F)F)c1)c1cnn(-c2cnc3c4c(cccc24)C(=O)N3)c1C1CC1 [US20250059196, Example 78] | 35 |
| O=C(Nc1cnc(-n2cccn2)c(C(F)(F)F)c1)c1cnn(-c2cnc3c4c(cccc24)C(=O)N3)c1C(F)(F)F [US20250059196, Example 69] | 81 |
| O=C(Nc1ccc(C(=O)N2CCCC2)c(C(F)(F)F)c1)c1cnn(-c2ccc3c4c(cccc24)C(=O)N3)c1C(F)(F)F [US20250059196, Example 52] | 104 |
| CS(C)(=O)=Nc1ncc(NC(=O)c2cnn(-c3ccc4c5c(cccc35)C(=O)N4)c2C(F)(F)F)cc1C(F)(F)F [US20250059196, Example 30] | 141 |
